According to US20230132973A1, “DIHYDRO-SPIRO[INDOLINE-3:1'-iSOQUINOLIN]-2-ONES AS ANTIMALARIAL AGENTS” (The University of Buea, priority 2020, published 2023):
Entries after “also recorded” stand apart in the source; their conditions may differ. Read-outs that look alike come from different tables or passages of the source.

Legend:
[1] = tested on: hemoglobin metabolism in P. falciparum ring and trophozoite stage parasites; test: Effect on hemoglobin degradation (intraparasitic hemoglobin content); format: cell-based, Plasmodium falciparum; settings: 10 μM, 24 h, relative to E64-treated cultures; listed as (±)-moxiquindole
Method: Owing to the fact that the DSIIQs are constructed from the THIQ pharmacophore of naphthylisoquinolines, which appear to target proteases involved in hemoglobin degradation, we assessed the effect of this DSIIQ on hemoglobin metabolism. Briefly, tightly synchronized ring and trophozoite stage parasites were treated with test compounds for 24 h followed by parasite isolation and quantification of the intraparasitic hemoglobin contents.
To investigate drug effects on hemoglobin degradation, early ring and mid-trophozoite stage parasites (1.5% hematocrit, 5% parasitemia) were co-cultured with the test compounds or experimental controls (0.1% DMSO, chloroquine, artemisinin NITD609 and E64) at a final concentration of 10 μM. The cultures were incubated at 37° C. and 5% CO2 for 24 h. Following incubation, inhibitors were removed by centrifugation at 1800 rpm for 5 min. The pellets were washed in an equal volume of 1×PBS and re-suspended in same volume of 0.1% saponin (in 1×PBS) for 3 min. Isolated parasites were pelleted at 2500 rpm for 5 min and washed twice in an equal volume of 1×PBS. The resulting parasite pellets were permeabilized by treatment in 20 μL of 1% Triton X-100 (in 1×PBS) for 5 min. Intraparasitic hemoglobin content was measured at 550 nm using a Nanodrop spectrophotometer, and folds increase in intra-parasite hemoglobin content was calculated relative to the E64-treated controls.

[2] = tested on: Human Liposarcoma (SW872) cells; test: MTT cell proliferation (cytotoxicity) assay, SW872 cells; format: cell-based
Method: (§1) By principle, the soluble MTT is reduced to an insoluble colored formazan product by mitochondrial succinate dehydrogenase in viable cells. Normal African Green Monkey Kidney Epithelial (Vero) and the Human Liposarcoma (SW872) cells were maintained in MEM supplemented with 10% FBS, 1% Glutamine and 1% penicillin-streptomycin. Confluent cells were trypsinized and seeded at a density of 2500 cells/well (total volume 90 μL) in 96-well plates and incubated for 24 h prior to drug treatment. Two-fold serial dilutions of the compounds (100-0.0488 μM) were added to the plates and incubated under humidified conditions at 37° C. for 48 h. Absorbance of the formed formazan product was measured at 550 nm wavelength using a SUNRISE microtiter plate reader. […] Selectivity indices (SI=CC50/EC50) were calculated as an indication of toxicity relative to the observed antiplasmodial activity.

[3] = tested on: Malaria parasites (ring-stage parasitized erythrocytes); test: Drug-combination (drug-drug interaction) studies, SYBR-Green I; format: cell-based, Plasmodium falciparum
Method: In view of the overlapping modes of action between the hybrids and some known antimalarial drugs in terms of targeted cellular processes, we investigated the interaction between these compounds at variable combination ratios. Malaria parasites were continuously cultured and synchronized as earlier described prior to the assay.
Briefly, two-fold drug dilutions were prepared using a variable potency ratio drug combination approach, starting at 5EC50A: 0EC50B to 0EC50A: 5EC50B in serum-free medium, where A and B represent the different partner molecules.
The test was run for 72 h and terminated when the untreated parasites were at the early trophozoite stage of the second cycle. Parasite viability was assessed by the SYBR-Green I fluorescence-based assay as earlier described. Dose-response curves and EC50 values of each combination and drug alone were obtained using GraphPad Prism v.5.0 and Microsoft Excel was used to calculate mean EC50 values and the standard error of the mean.

[4] = tested on: asexual blood stages of P. falciparum; test: Life cycle stage specific action by microscopy of Giemsa-stained thin smears; format: cell-based, Plasmodium falciparum; settings: 10 μM, 24 h, listed as (±)-moxiquindole
Method: The life cycle stage specific action of (±)-moxiquindole was determined by treatment of parasites at different time points followed by microscopic analysis of Giemsa-stained thin blood smears. Stage proportions were calculated for each asexual parasite stage in the drug treated wells relative to the same stage in the negative control wells.
The inhibitory effects of active compounds or reference drugs on parasite development and schizont rupture were determined by quantitative light microscopy as previously described (Lee et al., 2015). Briefly, synchronized cultures (1.5% hematocrit and 3% parasitemia) at different time-points (early rings, mid trophozoites and schizonts) were treated with either test compound or controls at 10 μM final concentration for 24 h under regular culture conditions. Following treatment, Giemsa-stained thin smears were prepared and parasites were counted in 1,000 erythrocytes per treatment. Stage proportions in test wells relative to solvent control wells were calculated and used to assess the in vitro effects of each compound on trophozoites and schizont development as well as merozoite egress and invasion.

[5] = tested on: multidrug resistant strain Dd2; test: SYBR green I-based parasite growth inhibition assay, Dd2 strain; format: cell-based, Plasmodium falciparum
[6] = tested on: CQ-sensitive 3D7 strain of P. falciparum; test: SYBR green I-based parasite growth inhibition assay, 3D7 strain; format: cell-based, Plasmodium falciparum; settings: for EC50: 72 h, read-out: EC50
[7] = tested on: vacuolar lipid dynamics in P. falciparum; test: Effect on vacuolar lipid dynamics (Oil Red O staining); format: cell-based, Plasmodium falciparum; settings: trophozoite stage parasites, 24 h
Method: Because cellular vacuolation may result from perturbation of intracellular lipid content, we investigated the effect of (±)-moxiquindole on vacuolar lipid dynamics using fluorescent Oil red O as lipid stain.
The effect of the compounds on intracellular lipid dynamics was assessed by measurement of intracellular lipid content using Oil Red O. Briefly, early rings or late trophozoite stage parasites (30 hpi) were treated with the compounds or controls for 24 h under regular culture conditions. Following treatment, inhibitors were removed by centrifugation at 2500 rpm for 5 min and pellets were washed in equal volumes of 1×PBS. The parasites were fixed with 4% paraformaldehyde for 30 min at room temperature and pelleted at 2500. Three volumes of Oil Red O (ORO) stock solution (5 mg/mL in 100% isopropanol) were diluted in two volumes of distilled water and filtered prior to use. About 100 μL of the ORO were added to parasite pellets in the tube and incubated for 30 minutes. Parasites were pelleted and washed twice in distilled water. Thereafter, parasites were deposited on pre-cleaned coverslips and air dried. Dried coverslips were mounted in DAPI antifade reagent onto cleaned slides, air dried and viewed under a 100× oil immersion lens and images acquired using a Leica DM1000 fluorescence microscope suite (LAS version 4.5).

[8] = tested on: Normal African Green Monkey Kidney Epithelial (Vero) cells; test: MTT cell proliferation (cytotoxicity) assay, Vero cells; format: cell-based
Method: as §1

In the case of COc1cc2c(cc1OC)C1(NCC2)C(=O)Nc2ccc(Cl)cc21 (centres unmarked) [Compound 8b], the “intraparasitic hemoglobin content / accumulation” value [1] is reported as “significantly higher; also recorded: accumulation of intra-parasitic hemoglobin”, the CC50 ([2]; SW872, MTT) is reported as > 100000 nM and the cell viability ([2]; SW872, up to 100 μM compound concentration, 48 h) is reported as “no significant decrease in cell viability”. For the same molecule, the “combination index (CI)” value ([3]; in combination with artemisinin) was 1.440, the “combination index (CI)” value ([3]; in combination with chloroquine) was 1.478 and the “stage specific action on asexual blood stages (ring, trophozoite, schizont)” value ([4]; treated at early ring, mid-trophozoite or mid-schizont) was “multi-stage active; also recorded: exhibits inhibitory activities against ring-to-trophozoite development, trophozoite-to-schizont development and schizont rupture”. The “vacuolation in treated parasites” value ([4]; Giemsa-stained thin smears) was “abnormal vacuolation; also recorded: induced vacuolation in parasites”, the cross-resistance index [5] was 0.935 and the EC50 ([5]; Pf Dd2) was 1730 nM. For the same molecule, the EC50 ([5]; Pf Dd2, 0.078 μM to 10 μM) was 1730 nM, the “dose-response curve within the tested drug concentration range” value ([6]; Pf 3D7, 0.078 μM to 10 μM) was “complete sigmoidal dose-response curve” and the EC50 ([6]; Pf 3D7, 0.078 μM to 10 μM, listed as (±)-moxiquindole) was 1850 nM. For the same molecule, the EC50 ([6]; Pf 3D7, 0.078 μM to 10 μM) was < 2000 nM, the “parasite growth inhibition in primary assays” value ([6]; primary screening at 10 μM, Pf 3D7, 72 h) was ~97% and the “neutral lipid bodies / vacuolar lipid uptake (Oil red O)” value [7] was “devoid of neutral lipid bodies”. The CC50 ([8]; MTT) was > 100000 nM and the cell viability ([8]; up to 100 μM compound concentration, 48 h) was “no significant decrease in cell viability”.
